Laboratory results as given in the NIST ThermoML archive (doi:10.1016/j.tca.2006.01.020).

Experiment: molar heat capacity at constant pressure
Details: 101.33 kPa, Crystal, Small (less than 1 g) adiabatic calorimetry

[Ba+2].[Ce+4].[O-2].[O-2].[O-2] [barium cerium(IV) oxide]
Details | molar heat capacity at constant pressure [J/K/mol]
1.721 K | 0.00113
1.726 K | 0.00106
1.733 K | 0.00113
1.761 K | 0.00102
1.781 K | 0.00108
1.833 K | 0.00116
1.87 K | 0.00103
1.904 K | 0.00103
1.995 K | 0.00167
2.042 K | 0.00152
2.096 K | 0.00138
2.134 K | 0.00153
2.178 K | 0.0019
2.817 K | 0.00505
2.844 K | 0.00578
2.877 K | 0.0056
3.154 K | 0.00691
3.175 K | 0.00697
3.25 K | 0.00798
3.258 K | 0.00871
3.318 K | 0.00829
3.349 K | 0.00913
3.382 K | 0.00944
3.471 K | 0.0093
3.57 K | 0.01
3.673 K | 0.0107
3.834 K | 0.0118
3.983 K | 0.0132
4.14 K | 0.0143
4.241 K | 0.0157
4.384 K | 0.0171
4.454 K | 0.0187
4.608 K | 0.0193
4.68 K | 0.0211
4.756 K | 0.0223
4.835 K | 0.0232
4.911 K | 0.0245
4.992 K | 0.026
5.071 K | 0.0274
5.152 K | 0.0284
5.227 K | 0.0294
5.296 K | 0.0316
5.375 K | 0.0321
5.441 K | 0.0353
5.536 K | 0.0361
5.614 K | 0.0388
5.697 K | 0.0405
5.78 K | 0.0425
5.861 K | 0.0448
5.946 K | 0.0466
6.034 K | 0.0491
6.119 K | 0.0516
6.209 K | 0.0536
6.297 K | 0.0571
6.366 K | 0.057
6.457 K | 0.0616
6.548 K | 0.0639
6.647 K | 0.0675
6.739 K | 0.0705
6.841 K | 0.0743
6.93 K | 0.0778
7.04 K | 0.0831
7.13 K | 0.0857
7.24 K | 0.0907
7.34 K | 0.0935
7.45 K | 0.0993
7.55 K | 0.103
7.66 K | 0.11
7.76 K | 0.115
7.89 K | 0.123
8 K | 0.129
8.13 K | 0.138
8.25 K | 0.145
8.38 K | 0.156
8.5 K | 0.164
8.64 K | 0.176
8.77 K | 0.185
8.91 K | 0.201
9.04 K | 0.209
9.17 K | 0.221
9.32 K | 0.241
9.46 K | 0.251
9.59 K | 0.266
9.75 K | 0.289
9.92 K | 0.309
10 K | 0.318
10.08 K | 0.328
10.23 K | 0.348
10.4 K | 0.377
10.58 K | 0.4
10.76 K | 0.433
10.94 K | 0.461
11.1 K | 0.489
11.3 K | 0.534
11.48 K | 0.561
11.68 K | 0.61
11.89 K | 0.651
12.09 K | 0.7
12.29 K | 0.744
12.5 K | 0.806
12.72 K | 0.859
12.93 K | 0.919
13.15 K | 0.983
13.37 K | 1.05
13.59 K | 1.12
13.82 K | 1.2
14.05 K | 1.28
14.28 K | 1.36
14.51 K | 1.45
14.74 K | 1.54
14.97 K | 1.63
15.21 K | 1.73
15.44 K | 1.83
15.68 K | 1.93
15.91 K | 2.05
16.15 K | 2.16
16.38 K | 2.26
16.6 K | 2.38
16.84 K | 2.51
17.09 K | 2.62
17.32 K | 2.75
17.55 K | 2.89
17.79 K | 3.02
18.03 K | 3.16
18.27 K | 3.3
18.52 K | 3.44
18.76 K | 3.58
19 K | 3.73
19.23 K | 3.89
19.47 K | 4.05
19.73 K | 4.19
19.98 K | 4.35
20 K | 4.411
20.2 K | 4.52
20.44 K | 4.68
20.69 K | 4.84
20.94 K | 5
21.17 K | 5.2
21.41 K | 5.36
21.66 K | 5.54
21.91 K | 5.7
22.16 K | 5.88
22.39 K | 6.07
22.63 K | 6.26
22.88 K | 6.44
23.14 K | 6.62
23.38 K | 6.81
23.62 K | 7
23.86 K | 7.2
24.1 K | 7.39
24.36 K | 7.58
24.61 K | 7.76
24.86 K | 7.96
25.1 K | 8.19
25.34 K | 8.4
25.6 K | 8.57
25.86 K | 8.77
26.1 K | 8.98
26.34 K | 9.19
26.57 K | 9.41
26.83 K | 9.6
27.09 K | 9.8
27.35 K | 9.96
27.6 K | 10.2
27.83 K | 10.4
28.07 K | 10.7
28.33 K | 10.8
28.59 K | 10.7
28.92 K | 11.3
29.29 K | 11.6
29.83 K | 12.1
30 K | 12.33
30.39 K | 12.6
30.99 K | 13.1
31.6 K | 13.6
32.23 K | 14.1
32.89 K | 14.7
33.56 K | 15.3
34.26 K | 15.9
34.97 K | 16.5
35.7 K | 17.1
36.44 K | 17.8
37.19 K | 18.4
37.95 K | 19.1
38.72 K | 19.8
39.5 K | 20.4
40 K | 21.08
40.3 K | 21.1
41.1 K | 21.8
41.92 K | 22.5
42.76 K | 23.2
43.61 K | 24
44.48 K | 24.7
45.36 K | 25.5
46.27 K | 26.2
47.24 K | 26.9
48.19 K | 27.7
49.16 K | 28.5
50 K | 29.66
50.15 K | 29.4
51.15 K | 30.2
52.16 K | 31
53.16 K | 31.8
54.16 K | 32.6
55.16 K | 33.5
56.16 K | 34.3
57.16 K | 35.1
58.15 K | 35.9
59.14 K | 36.7
60 K | 37.42
60.13 K | 37.4
61.12 K | 38.2
62.11 K | 39
63.1 K | 39.7
64.09 K | 40.5
65.08 K | 41.3
66.07 K | 42
67.07 K | 42.8
68.06 K | 43.6
69.05 K | 44.3
70 K | 44.66
70.05 K | 45
71.04 K | 45.8
72.03 K | 46.6
73.03 K | 47.3
74.02 K | 47.8
75.02 K | 48.6
76.02 K | 49.2
77.02 K | 49.9
78.02 K | 50.6
79.01 K | 50.7
80 K | 51.2
80.01 K | 51.5
80.29 K | 51
81.69 K | 51.5
82.49 K | 52
83.31 K | 52.5
84.14 K | 53.1
84.98 K | 53.7
85.82 K | 54.2
86.68 K | 54.7
87.55 K | 55.3
88.43 K | 55.8
89.31 K | 56.3
90 K | 57.18
90.21 K | 56.9
91.11 K | 57.4
92.02 K | 58
92.94 K | 58.5
93.87 K | 59.1
94.81 K | 59.7
95.75 K | 60.2
96.71 K | 60.8
97.68 K | 61.3
98.65 K | 61.9
99.64 K | 62.4
100 K | 62.7
100.64 K | 63
101.64 K | 63.6
102.66 K | 64.1
103.69 K | 64.7
104.72 K | 65.2
105.77 K | 65.8
106.83 K | 66.4
107.9 K | 66.9
108.97 K | 67.4
110.06 K | 67.7
111.16 K | 68.5
112.27 K | 69.1
113.4 K | 69.7
114.53 K | 70.2
115.68 K | 70.8
116.83 K | 71.4
118 K | 71.9
119.18 K | 72.4
120 K | 72.61
120.37 K | 73
121.58 K | 73.5
122.79 K | 74
124.02 K | 74.6
125.26 K | 75.1
126.51 K | 75.7
127.77 K | 76.2
129.05 K | 76.8
130.34 K | 77.3
131.64 K | 77.9
132.96 K | 78.4
134.29 K | 78.9
135.63 K | 79.4
136.99 K | 79.9
138.36 K | 80.4
139.74 K | 80.9
140 K | 81.2
141.54 K | 81.6
142.95 K | 82.2
144.38 K | 82.8
145.83 K | 83.2
147.28 K | 83.8
148.76 K | 84.5
150.25 K | 85
151.75 K | 85.6
153.27 K | 86.1
154.8 K | 86.6
156.34 K | 87.3
157.91 K | 87.8
159.49 K | 88.2
160 K | 88.53
161.08 K | 88.9
162.69 K | 89.3
164.32 K | 89.9
165.96 K | 90.3
167.62 K | 90.8
169.3 K | 91.2
170.99 K | 91.8
172.7 K | 92.4
174.43 K | 92.9
176.17 K | 93.5
177.93 K | 94
179.71 K | 94.3
180 K | 94.63
181.5 K | 95.2
183.31 K | 95.3
185.15 K | 95.9
187 K | 96.4
188.86 K | 97.1
190.75 K | 97.8
192.65 K | 98
194.58 K | 98.2
196.52 K | 98.2
198.48 K | 98.6
200 K | 99.59
200.46 K | 99.2
202.45 K | 99.5
204.43 K | 100
206.42 K | 101
208.4 K | 101.1
210.39 K | 101.6
212.37 K | 101.7
214.35 K | 102.5
216.33 K | 102.8
218.31 K | 103.5
220 K | 103.6
220.3 K | 103.8
222.28 K | 103.6
224.26 K | 104.2
226.23 K | 105.1
228.22 K | 105
230.2 K | 105.5
232.17 K | 106.2
234.15 K | 106.2
236.14 K | 106.1
238.1 K | 106.8
240 K | 106.9
240.08 K | 106.6
242.05 K | 107.3
244.02 K | 107.1
245.99 K | 107.7
249.95 K | 108.3
251.89 K | 108.9
253.89 K | 109.5
255.86 K | 109.5
257.84 K | 109.2
259.8 K | 110.2
260 K | 109.9
261.77 K | 109.7
263.74 K | 110.1
267.67 K | 111
269.63 K | 110.4
271.61 K | 110.6
273.57 K | 111.4
275.53 K | 111.7
277.5 K | 111.9
279.46 K | 112.8
280 K | 112.6
281.42 K | 112.8
283.39 K | 112
285.35 K | 114
287.3 K | 114.2
289.27 K | 113.1
291.22 K | 113.8
293.17 K | 114.3
294.05 K | 113.5
297.48 K | 114.1
298.15 K | 114.8
299.16 K | 114.5
300 K | 114.9
